Legend:
mADRP promoter = test: NHR-promoter luciferase screen, mADRP promoter; assay type: cell-based, mouse; conditions: for Luc. act., normalized to lacZ / Normalized Luc. act., normalized to control: ADRP promoter, HR/ligand component; for mADRP promoter reporter activity: transcription factor +/- ligand, control = 1.00
Description: (§1) The use, feasibility, and reproducibility of the functional NHR-promoter screen in a 48-well format have been tested validated. Briefly, there were co-expressed 50 ng of each NHR/NHR homodimer or NHR/RXR heterodimer with 100 ng promoter/luciferase construct and 50 ng of LacZ (as a control for transfection efficiency) in CV-1 cells using Fugene HD (Roche) as a transfection reagent (alternatively or additionally, a CMV-YFP construct can be used as a transfection control). Each of the nuclear hormone receptors that were used in these experiments was cloned into a pcDNA3.1 vector and comprised a C-terminally linked V5H6 tag. Twenty-four hours after transfection, appropriate ligands were added, where applicable, (see Table 5 for various ligands and concentrations and after 48 hrs, samples were assayed for luciferase and LacZ activity. To measure for luciferase activity 15 ul of sample was added to 30 ul of luciferase buffer (20 mM tricine, 1.07 mM MgCarbonate, 2.67 mM MgSulfate, 0.1 mM Naz-EDTA, 5 mM DTT, 5 mM ATP, 0.15 mg/ml CoA, 0.5 mM Luciferin), mixed briefly, and run in a Perkin Elmer Victor 5 luminometer. Thus, the functional NHR-promoter screen was used to observe the transcriptional activity of 29 promoters from various physiological pathways including inflammation, lipid and sugar metabolism, cholesterol transport, xenobiotic metabolism, and circadian rhythm.
(§2) The promoters that facilitate transcription of the indicated gene products that were tested using the protocols described herein are listed in the first row of the table. The nuclear hormone receptors and, where applicable, ligands that were assayed for their transcriptional effects on the promoters are listed in the first column of the table. The data represent the luciferase activity of each sample normalized to both the lacZ activity of that sample and to a control, e.g., no NHR or ligand, as customary in the art. As described previously, these normalizations allow the transcriptional activity of each reporter cell to be compared to other samples.
(§3) Tables 7-40 show the transcriptional effects of the hormone receptors, and, where applicable, ligands (orphan receptors are screened without ligand), on each individual promoter. […] The control data of each table are shown in their last rows.

hPOMC promoter = test: NHR-promoter luciferase screen, hPOMC promoter; assay type: cell-based, human; conditions: for luciferase/LacZ, hPOMC (selected results): hPOMC promoter-luciferase, NHR +/- ligand, control = 1.0; for Luc. act., normalized to lacZ / Normalized Luc. act., normalized to control: hPOMC promoter, HR/ligand component; for hPOMC promoter reporter activity: transcription factor +/- ligand, control = 1.00
Description: as §1, §2, §3

mDio1 promoter = test: NHR-promoter luciferase screen, mDio1 promoter; assay type: cell-based, mouse; conditions: for Luc. act., normalized to lacZ / Normalized Luc. act., normalized to control: Dio1, HR component without or with its ligand; for mDio1 promoter reporter activity: transcription factor +/- ligand, control = 1.00
Description: as §1, §2, §3

hMDR1 promoter = test: NHR-promoter luciferase screen, hMDR1 promoter; assay type: cell-based, human; conditions: for Luc. act., normalized to lacZ / Normalized Luc. act., normalized to control: MDR1 promoter, HR/ligand component; for hMDR1 promoter reporter activity: transcription factor +/- ligand, control = 1.00
Description: as §1, §2, §3

hTNFa promoter = test: NHR-promoter luciferase screen, hTNFa promoter; assay type: cell-based, human; conditions: for Luc. act., normalized to lacZ / Normalized Luc. act., normalized to control: TNFa promoter, HR component without or with ligand; for hTNFa promoter reporter activity: transcription factor +/- ligand, control = 1.00
Description: as §1, §2, §3

mAgrp promoter = test: NHR-promoter luciferase screen, mAgrp promoter; assay type: cell-based, mouse; conditions: for Results of assays of transcription factor (+/- ligand) with mAgrp: Table 6d, luciferase activity relative to control (control = 1.00); for luciferase/LacZ, mAgrp (selected results): mAgrp promoter-luciferase, NHR +/- ligand, control = 1.0; for Luc. act., normalized to lacZ / Normalized Luc. act., normalized to control: mAgrp promoter, HR component with or without ligand; for Normalized Luc. act., normalized to control: relative to control
Description: as §1, §2, §3

| Substance | Luc. act., normalized to lacZ (mADRP promoter) | Normalized Luc. act., normalized to control (mADRP promoter) | mADRP promoter reporter activity (mADRP promoter) | luciferase/LacZ, hPOMC (selected results) (hPOMC promoter) | Luc. act., normalized to lacZ (hPOMC promoter) | Normalized Luc. act., normalized to control (hPOMC promoter) | hPOMC promoter reporter activity (hPOMC promoter) | Luc. act., normalized to lacZ (mDio1 promoter) | Normalized Luc. act., normalized to control (mDio1 promoter) | mDio1 promoter reporter activity (mDio1 promoter) | Luc. act., normalized to lacZ (hMDR1 promoter) | Normalized Luc. act., normalized to control (hMDR1 promoter) | hMDR1 promoter reporter activity (hMDR1 promoter) | Luc. act., normalized to lacZ (hTNFa promoter) | Normalized Luc. act., normalized to control (hTNFa promoter) | hTNFa promoter reporter activity (hTNFa promoter) | Results of assays of transcription factor (+/- ligand) with mAgrp (mAgrp promoter) | luciferase/LacZ, mAgrp (selected results) (mAgrp promoter) | Luc. act., normalized to lacZ (mAgrp promoter) | Normalized Luc. act., normalized to control (mAgrp promoter) |
| --- | --- | --- | --- | --- | --- | --- | --- | --- | --- | --- | --- | --- | --- | --- | --- | --- | --- | --- | --- | --- |
| GR: Glucocorticoid Receptor (NR3C1), cDNA driver | 238.1 | 0.5 | 0.48 | 0.2 | 0.7 | 0.2 | 0.16 | 2.5 | 0.6 | 0.55 | 0.1 | 0.4 | 0.39 | 463.3 | 0.5 | 0.47 | 0.55 | 0.6 | 22.0 | 0.6 |
| PNR: Photoreceptor-specific Nuclear Receptor (NR2E3), cDNA driver | 381.7 | 0.8 | 0.77 |  | 1.5 | 0.3 | 0.34 | 6.4 | 1.4 | 1.44 | 0.2 | 0.5 | 0.52 | 558.4 | 0.6 | 0.57 | 0.76 |  | 30.1 | 0.8 |
| VDR: Vitamin D Receptor (NR1I1), cDNA driver | 766.6 | 1.5 | 1.54 |  | 3.8 | 0.9 | 0.90 | 7.6 | 1.7 | 1.71 | 0.3 | 0.9 | 0.90 | 986.3 | 1.0 | 1.00 | 1.14 |  | 45.3 | 1.1 |
| ERR1: Estrogen Related Receptor α (NR3B1, ERRa), cDNA driver | 767.6 | 1.5 | 1.54 |  | 2.7 | 0.6 | 0.63 | 6.2 | 1.4 | 1.39 | 0.4 | 1.2 | 1.20 | 1234.7 | 1.3 | 1.26 | 1.15 |  | 45.5 | 1.1 |
| AR: Androsterone Receptor (NR3C4), cDNA driver | 600.8 | 1.2 | 1.21 |  | 1.8 | 0.4 | 0.42 | 6.4 | 1.4 | 1.43 | 0.2 | 0.6 | 0.60 | 1019.9 | 1.0 | 1.04 | 1.15 |  | 45.8 | 1.2 |
| PPARg: Peroxisome proliferator activated receptor γ (NR1C3), cDNA driver | 891.4 | 1.8 | 1.79 | 0.6 | 2.8 | 0.6 | 0.65 | 9.9 | 2.2 | 2.23 | 0.3 | 0.8 | 0.83 | 1345.4 | 1.4 | 1.37 | 1.84 | 1.8 | 73.0 | 1.8 |
| LXRa: Liver X Receptor α (NR1H3), cDNA driver | 1095.7 | 2.2 | 2.20 |  | 6.8 | 1.6 | 1.58 | 4.7 | 1.1 | 1.06 | 0.2 | 0.5 | 0.51 | 994.6 | 1.0 | 1.01 | 1.58 |  | 62.5 | 1.6 |

— patent publication US20110263454A1, “Methods of Identifying Functional Characteristics of Promoters, Transcription Modifying Proteins and Transcription Modulating Agents” (Salk Institute for Biological Studies, priority 2008, published 2011)
